Series [1] deals with MSI-H colorectal cancer SW48 cell line. Briefly: 2D anti-proliferative activity, MSI-H SW48 cells (CTG, 5 days). The format is cell-based. Conditions: for IC50: 5 days; for inhibition at 38.15 pM: 0.038146973 nM; for inhibition at 0.000152588 µM: 0.152587891 nM; for inhibition at 0.000610352 µM: 0.610351563 nM; for inhibition at 0.00244141 µM: 2.44140625 nM; for inhibition at 0.00976562 µM: 9.765625 nM; for inhibition at 0.0390625 µM: 39.0625 nM; for inhibition at 0.15625 µM: 156.25 nM; for inhibition at 0.625 µM: 625 nM; for inhibition at […]: 2500 nM; for inhibition at 10 µM: 10000 nM. The procedure: The molecules of the present disclosure were tested for their anti-proliferative activity against MSI-H tumor cells.
The proliferation of tumor cells with microsatellite instability MSI-H is sensitive to WRN inhibitors, while the proliferation of microsatellite stable (MSS) tumor cells is insensitive to WRN inhibitors. By testing the activities of the two, it is shown that the molecules of the present disclosure have an inhibitory and synthetic lethal effect on WRN at the cellular level.
(§1) The MSI-unstable SW48 colorectal cancer cells were cultured in RPMI 1640 medium containing 10% FBS and 1% penicillin-streptomycin in a 37° C., 5% CO2 constant temperature incubator. A 40 μL cell suspension was added to each well of a 384-well microplate. Using Echo, 40 nL of compounds at different concentrations was dispensed into each well, followed by incubation in a 37° C., 5% CO2 constant temperature incubator for 5 days. Then, 40 μL of CTG solution (Promega, Cat No. G7573) was added to each well, and the plate was incubated in the dark in a 37° C., 5% CO2 constant temperature incubator for 30 minutes. Luminescence was measured using an Envision multi-function microplate reader (Perkin Elmer, Model: Envision 2104). The luminescent signal was proportional to the amount of ATP in the system, and the amount of ATP directly represented the number of living cells in the system.

For the next series, the target named is WRN helicase (Homo sapiens, UniProt Q14191). As to the kind of experiment: WRN helicase hydrolysis/unwinding of double-stranded DNA (fluorescence). The format is biochemical. The procedure: The activity of the molecules of the present disclosure on the hydrolysis of double-stranded PP-6TR DNA by WRN helicase was tested.
Sequence of WRN helicase (Q14191 whole entry): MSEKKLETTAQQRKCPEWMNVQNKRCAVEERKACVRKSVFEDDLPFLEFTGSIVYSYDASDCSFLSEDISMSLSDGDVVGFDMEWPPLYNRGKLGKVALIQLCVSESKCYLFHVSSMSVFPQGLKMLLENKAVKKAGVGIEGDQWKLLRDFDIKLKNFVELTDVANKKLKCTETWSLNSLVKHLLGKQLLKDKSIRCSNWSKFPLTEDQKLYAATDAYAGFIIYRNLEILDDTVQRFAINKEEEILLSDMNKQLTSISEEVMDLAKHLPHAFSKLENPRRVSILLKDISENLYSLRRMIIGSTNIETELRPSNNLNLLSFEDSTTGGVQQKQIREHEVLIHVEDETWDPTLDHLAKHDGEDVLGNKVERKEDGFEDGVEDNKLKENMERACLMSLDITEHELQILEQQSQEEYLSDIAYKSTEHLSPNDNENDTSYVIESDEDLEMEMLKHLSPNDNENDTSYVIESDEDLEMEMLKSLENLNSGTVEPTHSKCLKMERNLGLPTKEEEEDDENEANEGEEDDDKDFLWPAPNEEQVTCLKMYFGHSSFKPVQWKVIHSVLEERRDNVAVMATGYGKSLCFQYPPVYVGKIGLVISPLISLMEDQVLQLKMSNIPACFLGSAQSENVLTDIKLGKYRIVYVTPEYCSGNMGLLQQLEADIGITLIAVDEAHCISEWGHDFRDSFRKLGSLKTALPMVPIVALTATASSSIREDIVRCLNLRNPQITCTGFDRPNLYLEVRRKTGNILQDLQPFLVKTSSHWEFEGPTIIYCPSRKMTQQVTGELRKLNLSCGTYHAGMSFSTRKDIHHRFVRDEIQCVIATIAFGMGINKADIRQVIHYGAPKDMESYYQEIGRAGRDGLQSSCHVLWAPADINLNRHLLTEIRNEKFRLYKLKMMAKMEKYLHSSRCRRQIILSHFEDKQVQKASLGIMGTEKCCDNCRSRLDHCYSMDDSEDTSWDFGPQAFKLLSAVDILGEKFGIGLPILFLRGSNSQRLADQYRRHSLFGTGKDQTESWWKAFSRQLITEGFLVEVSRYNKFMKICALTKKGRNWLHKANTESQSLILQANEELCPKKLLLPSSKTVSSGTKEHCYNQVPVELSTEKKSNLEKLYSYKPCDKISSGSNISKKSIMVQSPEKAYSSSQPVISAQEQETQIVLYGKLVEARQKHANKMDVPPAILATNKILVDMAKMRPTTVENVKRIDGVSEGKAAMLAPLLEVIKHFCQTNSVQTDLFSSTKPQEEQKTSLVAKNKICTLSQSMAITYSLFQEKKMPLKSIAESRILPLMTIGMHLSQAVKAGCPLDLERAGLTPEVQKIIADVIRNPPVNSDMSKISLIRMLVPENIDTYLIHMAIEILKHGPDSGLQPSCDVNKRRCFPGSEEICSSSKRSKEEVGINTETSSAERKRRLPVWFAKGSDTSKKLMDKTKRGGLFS
The working solution and buffer were prepared, and the test compound was dissolved in DMSO followed by a4-fold dilution (with a final concentration of 10 μM as the starting concentration). Then, 0.2 μL of the test compound solution was added to a384-well plate, followed by 10 μL of (2×) WRN enzyme solution. The mixture was incubated in the dark for 30 minutes, after which 10 μL of substrate detection solution containing double-stranded DNA was added to initiate the reaction (DNA length: 19 bp, labeled with TAMRA at the 3′ end and BHQ2 at the 5′ end). The mixture was incubated at room temperature for 60 minutes. The inhibitory activity (IC50) against the WRN enzyme was calculated based on the fluorescence change (Ex530/Em590) between the blank group (DMSO) and the compound group.

Series [2] deals with MSS colorectal cancer HT-29 cell line. As to the kind of experiment: 2D anti-proliferative activity, MSS HT-29 cells (CTG, 5 days). The conditions noted are these: Homo sapiens, 120 h. The format is cell-based. The procedure: The molecules of the present disclosure were tested for their anti-proliferative activity against MSS tumor cells.
as §1, with “MSS HT-29” for “MSI-unstable SW48”, “McCoy's 5A” for “RPMI 1640”

Series [3] is described as follows: Liver microsome stability test. The format is in vitro ADME. Conditions: human liver microsomes 0.5 mg/mL, compound 1 μM, NADPH 1 mM, 60 minutes; for microsomal CLint at 1 μM: read-out: Human Clint μL/min/mg Protein. The procedure: The liver microsome stability test of the compounds is as follows:
The compounds of the present disclosure were subjected to a liver microsome stability test. The compounds to be tested were co-incubated with liver microsomes of different species with or without the addition of NADPH. The final concentration of the compounds to be tested in the test system was 1 μM, the final concentration of NADPH was 1 mM, and the final concentration of liver microsomes was 0.5 mg/mL.

The nature of series [4]: Pharmacokinetic evaluation in mice. Conditions: for F: PO 10 mg/kg vs IV 2 mg/kg; for AUC(0-t): read-out: AUC0-24. The format is in vivo, CD1 female mice. The procedure: CD1 female mice were used as test animals and the drug was administered orally/intravenously (oral dosage: 10 mg/kg, intravenous dosage: 2 mg/kg).
Assay protocol: The oral group consisted of 3 mice per group (vehicle: 10% Hβ-CD-pH7.4), and the intravenous group consisted of 3 mice per group. […] The blood concentrations in plasma after oral and intravenous administration of mice were determined by LC/MS/MS, respectively.

[5] abbreviates: Homo sapiens, read-out: Average value/ Inhibition rate.
The mark [6] stands for this setting: Homo sapiens, read-out: Test 1/ Inhibition rate.
Where [7] appears, read: Homo sapiens, read-out: Test 2/ Inhibition rate.
Where [8] appears, read: female, CD1, mouse, plasma, IV 2 mg/kg.
Where [9] appears, read: female, CD1, mouse, plasma, PO 10 mg/kg.

Read-outs that look alike come from different tables or passages of the source.

Consider `CCc1c(N2CCN(C(=O)c3ncccc3O)CC2)c(=O)n2nc(-c3cccs3)nc2n1CC(=O)Nc1ccc(C(F)(F)F)cc1Cl` [Compound P4], for which the results for the IC50 (in series [1]; against WRN helicase) were 135 nM and 1.9 nM, respectively.
`CCc1c(N2CCN(C(=O)c3ncnc(C)c3O)CC2)c(=O)n2nc(C3=CCC(OC)CC3)nc2n1CC(=O)Nc1ccc(C(F)(F)F)c2ccsc12` (centres unmarked) [Compound H12] showed an IC50 in series [2] of over 10000 nM. This compound also came in with an IC50 in series [1] (Homo sapiens, 120 h) of 126 nM. In addition, in series [3], the CLint scaled at 1 μM turned out to be 28 mL/min/kg and the microsomal CLint at 1 μM was 22 µL/min/mg.
`Cc1ncnc(C(=O)N2CCN(c3c(C4CC4)n(CC(=O)Nc4ccc(C(F)(F)F)c5ccsc45)c4nc(C5=CCOCC5)nn4c3=O)CC2)c1O` [Compound H18] came in with an IC50 in series [2] of over 10000 nM.
As to `CCc1c(N2CCN(C(=O)c3ncnc(C)c3O)CC2)c(=O)n2nc(C3=CCOCC3)nc2n1CC(=O)Nc1ccc2c(C(F)(F)F)c[nH]c2c1` [Compound H6], the IC50 against WRN helicase is 625 nM.
With `CCc1c(N2CCN(C(=O)c3ncnc(C)c3O)CC2)c(=O)n2nc(C3=CCOCC3)nc2n1CC(=O)Nc1ccc2c(c1)NCC2(O)C(F)(F)F` (centres unmarked) [Compound H5], the IC50 against WRN helicase is 295 nM.
As for `CCc1c(N2CCN(C(=O)c3ncccc3O)CC2)c(=O)n2nc(-c3cccnc3)nc2n1CC(=O)Nc1ccc(C(F)(F)F)cc1C` [Compound A1, reference compound], in series [1] (setting [5]), the inhibition at 38.15 pM is -0.406%, the inhibition at 0.000152588 µM was -9.39%, the inhibition at 0.000610352 µM was -2.32% and the inhibition at 0.00244141 µM was -11.4%. In series [1] (setting [5]), the inhibition at 0.00976562 µM is -4.03%, the inhibition at 0.0390625 µM is -11.9%, the inhibition at 0.15625 µM was found to be 6.4% and the inhibition at 0.625 µM was determined as 97.4%. In series [1] (setting [5]), the inhibition at […] was 101% and the inhibition at 10 µM was determined as 102%. For the same compound, in series [1] (setting [6]), the inhibition at 38.15 pM was -2%, the inhibition at 0.000152588 µM is -13.2%, the inhibition at 0.000610352 µM is -2.37% and the inhibition at 0.00244141 µM was -13.8%. In addition, in series [1] (setting [6]), the inhibition at 0.00976562 µM amounted to 0.0311%, the inhibition at 0.0390625 µM is -12.6%, the inhibition at 0.15625 µM is -2.14% and the inhibition at 0.625 µM came out at 97.9%. Further, in series [1] (setting [6]), the inhibition at […] was 99.8% and the inhibition at 10 µM amounted to 101%. For the same compound, in series [1] (setting [7]), the inhibition at 38.15 pM was 1.19%, the inhibition at 0.000152588 µM is -5.61%, the inhibition at 0.000610352 µM was -2.27% and the inhibition at 0.00244141 µM was -8.9%. Also, in series [1] (setting [7]), the inhibition at 0.00976562 µM was -8.09%, the inhibition at 0.0390625 µM is -11.1%, the inhibition at 0.15625 µM amounted to 14.9% and the inhibition at 0.625 µM turned out to be 96.9%. Further, in series [1] (setting [7]), the inhibition at […] was 101% and the inhibition at 10 µM worked out at 102%. This compound also registered an IC50 in series [1] (Homo sapiens, 120 h) of 261 nM. The F in series [4] was determined as 14%.
`CCc1c(N2CCN(C(=O)c3ncccc3O)CC2)c(=O)n2nc(C3=CCOCC3)nc2n1CC(=O)NC12CC(C(F)(F)F)(C1)C2` [Compound A2, reference compound]: the IC50 was found to be 2540 nM in series [1] (Homo sapiens, 120 h) and 16 nM on WRN helicase.
As for `CCc1c(N2CCN(C(=O)c3ncccc3O)CC2)c(=O)n2nc(C3=CCS(=O)(=O)CC3)nc2n1CC(=O)Nc1ccc(C(F)(F)F)cc1Cl` [Compound P6], the IC50 against WRN helicase worked out at 3.5 nM.
Turning to `CCc1c(N2CCN(C(=O)c3ncnc(C)c3O)CC2)c(=O)n2nc(C3=CCOCC3)nc2n1CC(=O)Nc1ccc2c3c1ncn3CCC2` [Compound H23], the IC50 is over 10000 nM in series [2] and over 10000 nM in series [1] (Homo sapiens, 120 h).
For `CCc1c(N2CC3(CN(C(=O)c4ncnc(C)c4O)C3)C2)c(=O)n2nc(C3=CCOCC3)nc2n1CC(=O)Nc1ccc(C(F)(F)F)cc1Cl` [Compound P1], at WRN helicase, the IC50 turned out to be 3890 nM.
For `CCc1c(N2CCN(C(=O)c3ncccc3O)CC2)c(=O)n2nc(C3=CCOCC3)nc2n1CC(=O)Nc1ccc(C(F)(F)F)c2c1OCCO2` [Compound H7], the IC50 in series [1] (Homo sapiens, 120 h) came out at 1940 nM; at WRN helicase, 9.5 nM.
In the case of `CCc1c(N2CCN(C(=O)c3ncnc(C)c3O)CC2)c(=O)n2nc(C3=CCOCC3)nc2n1CC(=O)Nc1ccc(Br)c2ccsc12` [Compound H15], in series [2], the IC50 was over 10000 nM. This compound gave an IC50 in series [1] (Homo sapiens, 120 h) of 101 nM. For the same compound, in series [3], the CLint scaled at 1 μM stood at 2.5 mL/min/kg and the microsomal CLint at 1 μM is 2 µL/min/mg. The F in series [4] was found to be 35%. Further, in series [4] (setting [8]), the clearance is 50.4 mL/min/kg, the half-life was 18 min and the AUC(0-t) is 655 ng·h/mL. In addition, in series [4] (female, CD1, mouse, plasma, IV 2 mg/kg, read-out: C0), the C0 is 1740 ng/mL. In series [4] (setting [9]), the half-life was 114 min and the AUC(0-t) was found to be 1050 ng·h/mL. For the same compound, the Cmax in series [4] (female, CD1, mouse, plasma, PO 10 mg/kg, read-out: Cmax) amounted to 693 ng/mL. In addition, in series [4] (female, CD1, mouse, plasma, PO 10 mg/kg, read-out: Tmax), the Tmax was found to be 15 min.
Take `CCc1c(N2CCN(C(=O)c3ncnc(C)c3O)C[C@@H]2C)c(=O)n2nc(C3=CCOCC3)nc2n1CC(=O)Nc1ccc(C(F)(F)F)c2ccsc12` [Compound H17]: the IC50 is over 10000 nM in series [2] and 123 nM in series [1] (Homo sapiens, 120 h).
On to `CCc1c(N2CCN(C(=O)c3ncnc(C)c3O)CC2)c(=O)n2nc(C3=CCOCC3)nc2n1CC(=O)Nc1ccc(C(F)(F)F)c2scnc12` [Compound H21], for which the IC50 in series [2] was over 10000 nM; in series [1] (Homo sapiens, 120 h), 175 nM. In series [3], this compound registered a CLint scaled at 1 μM of 6 mL/min/kg. Further, the microsomal CLint at 1 μM in series [3] worked out at 4.8 µL/min/mg.
